This is an account of results in patent US6414114B2, “Disulfides and thiol compounds” (Dovetail Technologies, Inc., priority 1998, dated 2002).

A short description of series [1]: Solubility in acetonitrile/water. The format is physicochemical. The note with it: solvent acetonitrile/water as given in the value.
The subject of a further series is NS-1 mouse myeloma. The following applies: repeated administration as monotherapy soon after inoculation with relatively low doses of tumor; cited from earlier work.
In a further series the test system is Cloudman S-91 melanoma. The following applies: melanomas already established; cited from earlier work.
The subject of the next series is MOPC-315 myeloma. The following applies: administered along with melphalan; cited from earlier work.
The next series concerns B16 melanoma. The note with it: administered along with cyclophosphamide; cited from earlier work.

In the case of `O=C(CCNC(=O)OCc1ccccc1)NC(CS)C(=O)O` (stereo not drawn) [Cbz-beta-Ala-Cys], in series [1], the Solubility entry was “Soluble in 20% Acetonitrile/Water”.

Turning to `O=C(CCNC(=O)OCc1ccccc1)N[C@@H](CSSC[C@H](NC(=O)CCNC(=O)OCc1ccccc1)C(=O)O)C(=O)O` [Cbz-βAla-Cystine-βAla-Cbz, Cbz-beta-Ala-Cystine-beta-Ala-Cbz], the Solubility result in series [1] is “Soluble in 30% Acetonitrile/water”.

Take `NCCC(=O)NCCSSCCNC(=O)CCN` [β-alethine, Beta-alanyl cysteamine disulfide]: in the series on NS-1 mouse myeloma, the survival rates entry is “significantly increased survival rates”. The percent survival entry in the series with Cloudman S-91 melanoma is reported as “increase the percent survival”. Moreover, the “benefit as adjunct to chemotherapy” value in the series on MOPC-315 myeloma and in the series on B16 melanoma was “beneficial adjunct to chemotherapy” each time.
